Like-named read-outs stand apart in the source and are kept apart here.
Key:
[1] = target: T1, κ-opioid receptor (KOR), guinea pig (Cavia porcellus, UniProt P41144); experiment: [3H]U-69593 competition, guinea pig brain membranes; assay type: binding; details: 50 mM Tris-HCl pH 7.4, 30 °C, 30 min; unreliable (partial displacement)
T1 construct: gene OPRK1; native receptor in guinea pig brain membrane homogenate
Source text: [3H]U-69593 competition, guinea pig brain membranes on κ-opioid receptor (KOR), guinea pig

[2] = target: T2, δ-opioid receptor (DOR), rat (Rattus norvegicus, UniProt P33533); experiment: [3H]Ile5,6-deltorphin II competition, rat brain membranes; assay type: binding; details: read-out: Ki ± S.E.M. (nM) / [^3H]IleDelt II (δ) ^1; 50 mM Tris-HCl pH 7.4, 35 °C, 45 min; Cheng-Prusoff
T2 construct: gene Oprd1; native receptor in rat brain membrane homogenate

[3] = target: T3, µ-opioid receptor (MOR), rat (Rattus norvegicus, UniProt P33535); experiment: […]GTPγS binding, rat brain membranes; assay type: biochemical; details: read-out: EC50 ± S.E.M.; agonist; pH 7.4, 30 °C, 60 min, 30 µM GDP; mixed opioid receptors in tissue, assigned to MOR by the authors
T3 construct: gene Oprm1; native receptor in rat brain membrane homogenate or rat vas deferens

[4] = target: T3, µ-opioid receptor (MOR), rat; assay type: binding; details: read-out: Ki ± S.E.M. (nM) / [^3H]DAMGO (μ) ^1
MOR, mouse vas deferens = target: T4, MOR, mouse vas deferens (Mus musculus, UniProt P42866); details: read-out: EC50 ± S.E.M. (nM) / MVD
T4 construct: gene Oprm1; native receptor in isolated mouse vas deferens

[5] = target: T2, δ-opioid receptor (DOR), rat; experiment: [3H]Ile5,6-deltorphin II competition, rat brain membranes; assay type: binding; details: 50 mM Tris-HCl pH 7.4, 35 °C, 45 min; unreliable (incomplete displacement)
[6] = target: T2, δ-opioid receptor (DOR), rat; experiment: […]GTPγS binding, rat brain membranes; assay type: biochemical; details: agonist; pH 7.4, 30 °C, 60 min, 30 µM GDP

For `COc1ccc2c3c1O[C@H]1[C@@H](OS(=O)(=O)O)C=C[C@@]4(OC)[C@@H](C2)N(C)CC[C@]314` [14-methoxycodeine-6-O-sulfate], the “Ki ± S.E.M. (nM) / [^3H]U-69593 (κ) ^2” value [1] was 245.57 ± 215.01 nM, the Ki [2] was 346 ± 133 nM and the EC50 [3] was 301 ± 197 nM. It also gave a Ki [4] of 3.37 ± 0.48 nM and an EC50 (MOR, mouse vas deferens) of 239 ± 6.15 nM.

In the case of `COc1ccc2c3c1O[C@H]1[C@@H](OS(=O)(=O)O)C=C[C@H]4[C@@H](C2)N(C)CC[C@@]341` [codeine-6-O-sulfate], the “Ki ± S.E.M. (nM) / [^3H]IleDelt II (δ) ^1” value [5] is reported as 968.28 ± 471.38 nM, the Ki ([4]; 50 mM Tris-HCl pH 7.4, 35 °C, 45 min, Cheng-Prusoff) is reported as 96.9 ± 20.3 nM and the EC50 (MOR, mouse vas deferens; agonist, Mg2+-free Krebs, 31 °C, MOR assigned by naloxone Ke) is reported as over 1000 nM.

Compound `CC(C)[C@H](NC(=O)[C@H](CCC(=O)O)NC(=O)[C@H](Cc1ccccc1)NC(=O)[C@@H](C)NC(=O)[C@@H](N)Cc1ccc(O)cc1)C(=O)N[C@H](C(=O)NCC(N)=O)C(C)C` [deltorphin II] has an EC50 [6] of 44.4 ± 23.5 nM.

From article PMC7144380 (Molecules, 2020)
